This passage reports IC50 results from patent US11274085B2, “3-aryl-bicyclic [4,5,0] hydroxamic acids as HDAC inhibitors” (Valo Health, Inc., priority 2015, dated 2022).

The structures appear in SMILES notation.

The assay addresses T1, human recombinant HDAC6 (Homo sapiens, UniProt Q9UBN7).
T1 sequence (Q9UBN7 1-1215): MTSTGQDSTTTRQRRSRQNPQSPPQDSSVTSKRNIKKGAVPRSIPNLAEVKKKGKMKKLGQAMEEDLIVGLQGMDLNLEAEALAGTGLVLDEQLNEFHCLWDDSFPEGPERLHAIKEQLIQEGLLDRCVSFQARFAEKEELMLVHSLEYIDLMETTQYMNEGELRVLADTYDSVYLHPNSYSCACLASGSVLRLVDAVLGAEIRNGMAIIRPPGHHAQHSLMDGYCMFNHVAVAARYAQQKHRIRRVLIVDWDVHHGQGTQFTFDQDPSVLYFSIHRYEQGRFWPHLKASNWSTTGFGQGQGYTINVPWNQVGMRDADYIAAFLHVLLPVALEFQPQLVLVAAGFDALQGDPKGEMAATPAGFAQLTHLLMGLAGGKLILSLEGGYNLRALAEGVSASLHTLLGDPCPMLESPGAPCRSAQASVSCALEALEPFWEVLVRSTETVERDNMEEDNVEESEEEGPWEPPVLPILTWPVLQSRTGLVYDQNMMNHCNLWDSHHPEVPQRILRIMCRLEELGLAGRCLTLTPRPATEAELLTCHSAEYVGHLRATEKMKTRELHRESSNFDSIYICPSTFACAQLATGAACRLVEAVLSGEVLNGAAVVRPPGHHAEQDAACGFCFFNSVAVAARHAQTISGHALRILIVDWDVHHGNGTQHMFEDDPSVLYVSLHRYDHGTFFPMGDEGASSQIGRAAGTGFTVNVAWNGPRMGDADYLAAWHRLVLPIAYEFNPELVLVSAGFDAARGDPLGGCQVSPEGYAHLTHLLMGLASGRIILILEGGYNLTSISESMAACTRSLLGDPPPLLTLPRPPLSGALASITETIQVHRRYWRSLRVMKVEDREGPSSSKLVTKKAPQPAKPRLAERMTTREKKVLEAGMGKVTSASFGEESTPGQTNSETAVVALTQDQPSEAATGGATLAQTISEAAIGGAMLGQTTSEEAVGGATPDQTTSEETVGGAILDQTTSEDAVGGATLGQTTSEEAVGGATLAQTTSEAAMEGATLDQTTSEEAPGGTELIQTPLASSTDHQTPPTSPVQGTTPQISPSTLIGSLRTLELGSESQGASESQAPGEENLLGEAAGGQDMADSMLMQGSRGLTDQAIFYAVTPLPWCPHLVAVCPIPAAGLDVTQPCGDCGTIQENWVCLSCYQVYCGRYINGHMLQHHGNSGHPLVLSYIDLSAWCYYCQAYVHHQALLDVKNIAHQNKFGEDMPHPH
The experiment in a line: In vitro histone deacetylase assay: enzymatic HDAC6 electrophoretic mobility shift assay. The class given is biochemical. The note with it: full length human recombinant HDAC6 1 nM, 2 μM peptide substrate RHKK(Ac)-NH2, 25° C.; read-out: Inhibitory Concentration (IC50) against HDAC6, Activity Range. As to the method: The enzymatic HDAC6 assay was performed using electrophoretic mobility shift assay. […] The enzymatic reactions were assembled in 384 well plates and in a total volume of 25 μL in a reaction buffer comprising: 100 mM HEPES, pH 7.5, 25 mM KCl, 0.1% bovine serum albumin, 0.01% Triton X-100, 1% DMSO (from compounds), 2 μM of the fluorescently labeled peptide substrate, and enzyme. The enzyme was added at a final concentration of 1 nM and the peptide substrate RHKK(Ac)—NH2 was used. The compounds were tested at 12 concentrations spaced by 3× dilution intervals. Negative control samples (0%-inhibition in the absence of inhibitor) and positive control samples (100%-inhibition) were assembled in replicates of four in each assay plate. The reactions were incubated at 25° C. and quenched by the addition of 45 μL of termination buffer (100 mM HEPES, pH 7.5, 0.01% Triton X-100, 0.05% SDS).
The terminated assay plates were analyzed on LabChip® 3000 microfluidic electrophoresis instrument (Perkin Elmer/Caliper Life Sciences). The fluorescence intensity of the electrophoretically separated de-acetylated product and substrate peptide was measured. Activity in each sample was determined as the product to sum ratio (PSR):P/(S+P), where P is the peak height of the product peptide and S is the peak height of the substrate peptide. Percent inhibition (Pinh) is determined using the following equation: Pinh=(PSR0%−PSRinh)/(PSR0%−PSR100%)*100, where PSRinh is the product sum ratio in the presence of inhibitor, PSR0% is the average product sum ration in the absence of inhibitor, and PSR100% is the average product sum ratio in 100%-inhibition control samples. The IC50 values of inhibitors were determined by fitting the %-inhibition curves with 4 parameter dose-response model using XLfit 4 software.
As set forth in Table 4, below, IC50 values are defined as follows: IC50≤0.1 μM (+++); IC50>0.1 μM and ≤0.5 μM (++); IC50>0.5 μM (+).
A general note: Mobility shift assays separate free from complexed probe on a gel.
As for `O=C(NO)c1ccc2c(c1)OC[C@@H](c1cccnc1)N(C(=O)N1CCOCC1)C2` (single isomer, unassigned), the IC50 was > 500 nM.
In the case of `O=C(NO)c1ccc2c(c1)OC[C@H](c1cccnc1)N(C(=O)N1CCOCC1)C2` (single isomer, unassigned) it was ≤ 100 nM; in that of `O=C(NO)c1ccc2c(c1)OC[C@@H](c1ccccc1)N(c1ccccc1)C2` [(R)-N-hydroxy-3,4-diphenyl-2,3,4,5-tetrahydrobenzo[f][1,4]oxazepine-8-carboxamide], 100 to 500 nM; in that of `COc1ccc(CN2Cc3ccc(C(=O)NO)cc3OC[C@H]2c2ccccc2)cc1` [(R)-N-hydroxy-4-(4-methoxybenzyl)-3-phenyl-2,3,4,5-tetrahydrobenzo[f][1,4]oxazepine-8-carboxamide], ≤ 100 nM.
In the case of `CN1Cc2ccc(C(=O)NO)cc2OC[C@H]1c1ccccc1` [(R)-N-hydroxy-4-methyl-3-phenyl-2,3,4,5-tetrahydrobenzo[f][1,4]oxazepine-8-carboxamide] it was ≤ 100 nM; in that of `O=C(NO)c1ccc2c(c1)OC[C@H](c1cccc(Cl)c1)N(C(=O)N1CCOCC1)C2` [(S)-3-(3-chlorophenyl)-N-hydroxy-4-(morpholine-4-carbonyl)-2,3,4,5-tetrahydrobenzo[f][1,4]oxazepine-8-carboxamide], ≤ 100 nM; in that of `O=C(NO)c1ccc2c(c1)OC[C@H](c1ccc(Cl)cc1)N(C(=O)N1CCOCC1)C2` [(S)-3-(4-chlorophenyl)-N-hydroxy-4-(morpholine-4-carbonyl)-2,3,4,5-tetrahydrobenzo[f][1,4]oxazepine-8-carboxamide], ≤ 100 nM.
Under `O=C(NO)c1ccc2c(c1)OC[C@H](c1ccc(F)cc1)N(C(=O)N1CCOCC1)C2` [(S)-3-(4-fluorophenyl)-N-hydroxy-4-(morpholine-4-carbonyl)-2,3,4,5-tetrahydrobenzo[f][1,4]oxazepine-8-carboxamide] stands ≤ 100 nM; under `CC(=O)N1CCN(C(=O)N2Cc3ccc(C(=O)NO)cc3OC[C@@H]2c2ccccc2)CC1` [(S)-4-(4-acetylpiperazine-1-carbonyl)-N-hydroxy-3-phenyl-2,3,4,5-tetrahydrobenzo[f][1,4]oxazepine-8-carboxamide], ≤ 100 nM.
As to `O=C(NO)c1ccc2c(c1)OC[C@H](c1ccccc1)N(S(=O)(=O)c1ccc(F)cc1)C2` [(S)-4-((4-fluorophenyl)sulfonyl)-N-hydroxy-3-phenyl-2,3,4,5-tetrahydrobenzo[f][1,4]oxazepine-8-carboxamide], the IC50 is 100 to 500 nM.
For the compound `O=C(NO)c1ccc2c(c1)OC[C@H](c1ccccc1)N(C(=O)NC1CCCCC1)C2` [(S)-N4-cyclohexyl-N8-hydroxy-3-phenyl-2,3-dihydrobenzo[f][1,4]oxazepine-4,8(5H)-dicarboxamide], the IC50 was ≤ 100 nM.
In the case of `O=C(NO)c1ccc2c(c1)OC[C@H](c1ccccc1)N(C(=O)Nc1cccnc1)C2` [(S)-N8-hydroxy-3-phenyl-N4-(pyridin-3-yl)-2,3-dihydrobenzo[f][1,4]oxazepine-4,8(5H)-dicarboxamide] it was ≤ 100 nM.
In the case of `O=C(NO)c1ccc2c(c1)OC[C@H](c1ccccc1)N(C(=O)Nc1ccncc1)C2` [(S)-N8-hydroxy-3-phenyl-N4-(pyridin-4-yl)-2,3-dihydrobenzo[f][1,4]oxazepine-4,8(5H)-dicarboxamide] it was ≤ 100 nM; in that of `O=C(NO)c1ccc2c(c1)OC[C@H](c1ccccc1)N(C(=O)NC1CCOCC1)C2` [(S)-N8-hydroxy-3-phenyl-N4-(tetrahydro-2H-pyran-4-yl)-2,3-dihydrobenzo[f][1,4]oxazepine-4,8(5H)-dicarboxamide], ≤ 100 nM.
Consider `O=C(NO)c1ccc2c(c1)OC[C@H](c1ccccc1)N(C(=O)Nc1ccccc1)C2` [(S)-N8-hydroxy-N4,3-diphenyl-2,3-dihydrobenzo[f][1,4]oxazepine-4,8(5H)-dicarboxamide], for which the IC50 was ≤ 100 nM.
Consider `CN(C)C(=O)N1Cc2ccc(C(=O)NO)cc2OC[C@@H]1c1ccccc1` [(S)-N8-hydroxy-N4,N4-dimethyl-3-phenyl-2,3-dihydrobenzo[f][1,4]oxazepine-4,8(5H)-dicarboxamide], for which the IC50 is ≤ 100 nM.
For the compound `O=C(NO)c1ccc2c(c1)OC[C@H](c1ccccc1)N(c1ccccc1)C2` [(S)-N-hydroxy-3,4-diphenyl-2,3,4,5-tetrahydrobenzo[f][1,4]oxazepine-8-carboxamide], the IC50 was ≤ 100 nM.
Under `O=C(NO)c1ccc2c(c1)OC[C@H](c1ccccc1)N(C(=O)N1CCCCC1)C2` [(S)-N-hydroxy-3-phenyl-4-(piperidine-1-carbonyl)-2,3,4,5-tetrahydrobenzo[f][1,4]oxazepine-8-carboxamide] stands ≤ 100 nM; under `O=C(NO)c1ccc2c(c1)OC[C@H](c1ccccc1)N(C(=O)N1CCCC1)C2` [(S)-N-hydroxy-3-phenyl-4-(pyrrolidine-1-carbonyl)-2,3,4,5-tetrahydrobenzo[f][1,4]oxazepine-8-carboxamide], ≤ 100 nM.
In the case of `COc1ccc(CN2Cc3ccc(C(=O)NO)cc3OC[C@@H]2c2ccccc2)cc1` [(S)-N-hydroxy-4-(4-methoxybenzyl)-3-phenyl-2,3,4,5-tetrahydrobenzo[f][1,4]oxazepine-8-carboxamide] it was ≤ 100 nM; in that of `COC1CCN(C(=O)N2Cc3ccc(C(=O)NO)cc3OC[C@@H]2c2ccccc2)CC1` [(S)-N-hydroxy-4-(4-methoxypiperidine-1-carbonyl)-3-phenyl-2,3,4,5-tetrahydrobenzo[f][1,4]oxazepine-8-carboxamide], ≤ 100 nM.
In the case of `CN1CCN(C(=O)N2Cc3ccc(C(=O)NO)cc3OC[C@@H]2c2ccccc2)CC1` [(S)-N-hydroxy-4-(4-methylpiperazine-1-carbonyl)-3-phenyl-2,3,4,5-tetrahydrobenzo[f][1,4]oxazepine-8-carboxamide] it was ≤ 100 nM; in that of `O=C(NO)c1ccc2c(c1)OC[C@H](c1ccc(C(F)(F)F)cc1)N(C(=O)N1CCOCC1)C2` [(S)-N-hydroxy-4-(morpholine-4-carbonyl)-3-(4-(trifluoromethyl)phenyl)-2,3,4,5-tetrahydrobenzo[f][1,4]oxazepine-8-carboxamide], ≤ 100 nM.
Turning to `Cc1ccc([C@H]2COc3cc(C(=O)NO)ccc3CN2C(=O)N2CCOCC2)cc1` [(S)-N-hydroxy-4-(morpholine-4-carbonyl)-3-(p-tolyl)-2,3,4,5-tetrahydrobenzo[f][1,4]oxazepine-8-carboxamide], the IC50 was ≤ 100 nM.
Under `O=C(NO)c1ccc2c(c1)OC[C@H](c1ccccc1)N(C(=O)N1CCOCC1)C2` [(S)-N-hydroxy-4-(morpholine-4-carbonyl)-3-phenyl-2,3,4,5-tetrahydrobenzo[f][1,4]oxazepine-8-carboxamide] stands ≤ 100 nM; under `CN1Cc2ccc(C(=O)NO)cc2OC[C@@H]1c1ccccc1` [(S)-N-hydroxy-4-methyl-3-phenyl-2,3,4,5-tetrahydrobenzo[f][1,4]oxazepine-8-carboxamide], ≤ 100 nM.
